From ChEMBL document CHEMBL5241097, “Synthetically-tailored and nature-derived dual COX-2/5-LOX inhibitors: Structural aspects and SAR” (Eur J Med Chem, 2021)
In brackets after ≈: the same amount, converted by molar mass. Values belong to the molecule of their own block, whether it stands above or below them.

Tests used:
[1] = target: T1, Prostaglandin G/H synthase 2 (Homo sapiens, UniProt P35354); assay: Inhibition of COX-2 (unknown origin)
T1 sequence (P35354 whole entry): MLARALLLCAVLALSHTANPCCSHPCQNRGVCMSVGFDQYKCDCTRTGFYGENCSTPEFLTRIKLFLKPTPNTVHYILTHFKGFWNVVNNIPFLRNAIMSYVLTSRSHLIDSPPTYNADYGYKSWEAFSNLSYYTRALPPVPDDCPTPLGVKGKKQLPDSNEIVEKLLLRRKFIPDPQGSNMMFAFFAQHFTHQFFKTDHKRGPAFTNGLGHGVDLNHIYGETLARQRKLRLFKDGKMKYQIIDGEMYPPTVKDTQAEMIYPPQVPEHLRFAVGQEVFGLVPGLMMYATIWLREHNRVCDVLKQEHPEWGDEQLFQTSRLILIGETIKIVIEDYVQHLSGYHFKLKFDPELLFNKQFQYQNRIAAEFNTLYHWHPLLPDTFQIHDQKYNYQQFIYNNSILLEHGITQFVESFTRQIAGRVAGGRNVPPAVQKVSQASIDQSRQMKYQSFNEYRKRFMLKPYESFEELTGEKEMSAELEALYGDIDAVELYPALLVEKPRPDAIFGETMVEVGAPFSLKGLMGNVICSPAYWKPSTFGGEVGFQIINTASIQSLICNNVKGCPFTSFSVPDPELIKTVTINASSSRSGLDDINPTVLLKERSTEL

[2] = target: T2, Polyunsaturated fatty acid 5-lipoxygenase (Homo sapiens, UniProt P09917); assay: Inhibition of 5-LOX (unknown origin)
T2 sequence (P09917 whole entry): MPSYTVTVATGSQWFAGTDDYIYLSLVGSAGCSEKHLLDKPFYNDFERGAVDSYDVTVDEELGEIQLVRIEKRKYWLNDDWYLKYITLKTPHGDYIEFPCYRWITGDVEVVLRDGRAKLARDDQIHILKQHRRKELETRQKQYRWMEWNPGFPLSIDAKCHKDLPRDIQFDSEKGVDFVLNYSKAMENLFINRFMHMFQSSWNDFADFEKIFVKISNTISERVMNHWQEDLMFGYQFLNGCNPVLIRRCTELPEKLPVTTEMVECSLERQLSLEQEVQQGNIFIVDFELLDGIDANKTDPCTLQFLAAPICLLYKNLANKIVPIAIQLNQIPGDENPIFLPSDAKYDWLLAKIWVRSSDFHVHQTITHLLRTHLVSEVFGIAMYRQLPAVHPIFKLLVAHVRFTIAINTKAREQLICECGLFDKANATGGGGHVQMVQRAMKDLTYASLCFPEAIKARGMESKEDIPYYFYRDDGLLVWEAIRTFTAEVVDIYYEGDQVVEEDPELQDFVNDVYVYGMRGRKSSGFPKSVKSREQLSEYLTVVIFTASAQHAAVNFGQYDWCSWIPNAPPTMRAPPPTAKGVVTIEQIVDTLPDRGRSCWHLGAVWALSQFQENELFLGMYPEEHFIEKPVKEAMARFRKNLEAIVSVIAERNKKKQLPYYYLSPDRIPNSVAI

[3] = target: T1, Prostaglandin G/H synthase 2; assay: Inhibition of COX-2 (unknown origin) by 2,7-dichlorofluorescein dye based spectrophotometric method
[4] = target: T2, Polyunsaturated fatty acid 5-lipoxygenase; assay: Inhibition of 5-LOX (unknown origin) by spectrophotometric method
[5] = Antioxidant activity assessed as DPPH radical scavenging activity by spectrophotometric analysis; assay type: functional
[6] = species: Homo sapiens; assay: Selectivity index, ratio of IC50 for inhibition of human COX1 to IC50 for inhibition of human COX2
[7] = target: T1, Prostaglandin G/H synthase 2; assay: Inhibition of recombinant human COX-2 using arachidonic acid as substrate preincubated for 10 mins followed by substrate addition and measured after 2 mins by ELISA
[8] = target: T2, Polyunsaturated fatty acid 5-lipoxygenase; assay: Inhibition of 5-LOX (unknown origin) by enzyme immune assay
[9] = Selectivity index, ratio IC50 for inhibition of ovine COX-1 to IC50 for inhibition of recombinant human COX-2
[10] = target: T1, Prostaglandin G/H synthase 2; assay: Inhibition of recombinant human COX-2 by enzyme immune assay
[11] = tested on: Rattus norvegicus; assay: Antiinflammatory activity in carragenan-induced paw edema rat model assessed as reduction in edema thickness at 28 microg/kg, ip and measured after 4 hrs by digital Vernier caliper analysis; assay type: functional; set-up: scale not given: the % may be the effect or the level left; settings: dose 28 µg/kg
[12] = target: T2, Polyunsaturated fatty acid 5-lipoxygenase; assay: Inhibition of recombinant human 5-LOX using arachidonic acid as substrate preincubated for 10 mins followed by substrate addition and measured after 10 mins by ELISA
[13] = target: T1, Prostaglandin G/H synthase 2; assay: Inhibition of recombinant human COX-2 using arachidonic acid as substrate preincubated for 5 mins followed by substrate addition and measured after 20 mins by ELISA
[14] = target: T1, Prostaglandin G/H synthase 2; assay: Inhibition of recombinant human COX-2 using arachidonic acid as substrate preincubated for 10 mins followed by substrate addition and measured after 2 mins by Ellman's reagent based ELISA
[15] = target: T2, Polyunsaturated fatty acid 5-lipoxygenase; assay: Inhibition of recombinant human 5-LOX using arachidonic acid as substrate incubated for 10 mins by spectrophotometric analysis
[16] = target: T1, Prostaglandin G/H synthase 2; assay: Inhibition of COX-2 (unknown origin) by colorimetric method
[17] = tested on: Rattus norvegicus; assay: Antiinflammatory activity in po dosed Sprague-Dawley rat assessed as reduction in carragenan-induced paw edema and measured after 4 hrs by vernier caliper method; assay type: functional; set-up: scale not given: the % may be the effect or the level left
[18] = tested on: DU-145; assay: Antiproliferative activity against human DU-145 cells assessed as reduction in cell viability incubated for 48 hrs by MTT assay; assay type: functional, cell-based; settings: DU-145, 48 h
[19] = target: T1, Prostaglandin G/H synthase 2; assay: Inhibition of COX-2 (unknown origin) using arachidonic acid as substrate preincubated for 5 mins followed by substrate addition and measured after 20 mins by colorimetric assay
[20] = Inhibition of soybean 5-LOX using arachidonic acid as substrate preincubated for 5 mins followed by substrate addition and measured after 5 mins by microplate spectrophotometric analysis; set-up: species or system Glycine max
[21] = tested on: Rattus norvegicus; assay: Antiinflammatory activity in Wistar rat carragenan-induced paw edema model assessed as reduction in edema thickness at 50 mg/kg, po and measured after 2 hrs; assay type: functional; set-up: scale not given: the % may be the effect or the level left
[22] = target: T1, Prostaglandin G/H synthase 2; assay: Inhibition of COX-2 (unknown origin) using arachidonic acid as substrate preincubated for 5 mins followed by substrate addition by colorimetric assay
[23] = target: T2, Polyunsaturated fatty acid 5-lipoxygenase; assay: Inhibition of 5-LOX (unknown origin) by colorimetric assay
[24] = target: T1, Prostaglandin G/H synthase 2; assay: Inhibition of COX-2 (unknown origin) using arachidonic acid as substrate preincubated for 15 mins followed by substrate addition by colorimetric assay
[25] = Inhibition of soybean 5-LOX using linoleic acid as substrate by spectrophotometric analysis; set-up: species or system Glycine max
[26] = target: T2, Polyunsaturated fatty acid 5-lipoxygenase; assay: Inhibition of 5-LOX (unknown origin) by fluorometric analysis
[27] = target: T1, Prostaglandin G/H synthase 2; assay: Inhibition of recombinant human COX-2 using arachidonic acid as substrate by ELISA
[28] = target: Prostaglandin G/H synthase 1 (Homo sapiens, UniProt P23219); assay: Inhibition of recombinant human COX-1 using arachidonic acid as substrate by ELISA
[29] = target: T2, Polyunsaturated fatty acid 5-lipoxygenase; assay: Inhibition of 5-LOX (unknown origin) using linoleic acid as substrate preincubated for 5 mins followed by substrate addition by spectrophotometric assay

Prostaglandin G/H synthase 1, sequence (P23219 whole entry): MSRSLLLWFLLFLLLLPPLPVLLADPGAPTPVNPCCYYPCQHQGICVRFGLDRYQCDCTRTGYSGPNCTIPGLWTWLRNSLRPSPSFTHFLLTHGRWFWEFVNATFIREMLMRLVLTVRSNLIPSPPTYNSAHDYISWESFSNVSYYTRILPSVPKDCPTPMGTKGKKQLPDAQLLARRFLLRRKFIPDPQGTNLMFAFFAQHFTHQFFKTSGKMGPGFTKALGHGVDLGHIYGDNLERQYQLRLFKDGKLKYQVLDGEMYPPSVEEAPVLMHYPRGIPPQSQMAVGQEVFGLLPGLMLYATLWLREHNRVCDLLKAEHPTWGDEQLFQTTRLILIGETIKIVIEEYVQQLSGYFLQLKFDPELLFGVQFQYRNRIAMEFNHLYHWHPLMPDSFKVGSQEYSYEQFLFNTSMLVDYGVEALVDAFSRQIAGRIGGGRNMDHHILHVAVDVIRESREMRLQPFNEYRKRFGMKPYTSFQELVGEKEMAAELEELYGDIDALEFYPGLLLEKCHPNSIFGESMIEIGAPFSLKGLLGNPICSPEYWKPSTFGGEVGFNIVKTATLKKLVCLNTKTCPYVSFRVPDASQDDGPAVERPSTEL

IC50 [1]: 2.1 µM | IC50 [2]: 1.37 µM
SMILES: COc1ccc(-c2nc(-c3cn(C)c4ccccc34)c(C(=O)c3ccc(C#N)cc3)s2)cc1OC

IC50 [3]: 1400 µM | IC50 [4]: 1620 µM | IC50 [5]: 540 µg/mL (≈ 1170 µM)
SMILES: CC[C@H](CO)[C@@](C)(O)C/C=C/C(C)(C)OC(=O)C[C@]1(C)C=CC[C@@H](C)[C@@]12C=CC(C)(CC)O2 (stereo partly drawn)

Ratio IC50 [6]: 668 | IC50 [7]: 0.18 µM
SMILES: CCc1cc(OC)c(OC)c(OC)c1

IC50 [8]: 11.3 µM | Ratio IC50 [9]: 120 | IC50 [10]: 0.11 µM
SMILES: O=C(NC1CCCCC1)c1cc(/N=C/c2cc(O)ccc2O)ccc1O

IC50 [10]: 0.1 µM
SMILES: O=C(NC1CCCCC1)c1cc(NCc2cc(O)ccc2O)ccc1O
Activity [11]: 114.12%

IC50 [1]: 25.4 µM
SMILES: O=C(O)c1ccc(O)c(O)c1 [PROTOCATECHUIC ACID]

IC50 [1]: 23.4 µM
SMILES: COc1cc(C(=O)O)cc(O)c1O

IC50 [12]: 1.63 µM | IC50 [13]: 5.99 µM
SMILES: COc1cc(/C=C/c2ccc(O)cc2)cc(OC)c1 [PTEROSTILBENE]

IC50 [8]: 10.5 µM | Ratio IC50 [9]: 135 | IC50 [10]: 0.1 µM
SMILES: CCCCNC(=O)c1cc(NCc2cc(O)ccc2O)ccc1O
Activity [11]: 40.05%

IC50 [14]: 12.7 µM | IC50 [15]: 30.5 µM
SMILES: CC1=CCCC2C1(C)CCC(C)C2(C)CC/C(=C\C(=O)O)CO (stereo not drawn)

Ratio IC50 [6]: 8.37 | IC50 [16]: 5.45 µM | IC50 [2]: 4.33 µM
SMILES: N#Cc1c(-c2ccc(Cl)cc2)csc1NC(=O)CN1CCOCC1
Activity [17]: 58.77%

IC50 [18]: 18.5 µM | IC50 [19]: 0.12 µM | IC50 [20]: 7.46 µM
SMILES: CC(=O)OC[C@@H]1O[C@@H](n2cc(CNC(=O)C(=O)c3cn(S(=O)(=O)c4ccc(C)cc4)c4ccccc34)nn2)[C@H](OC(C)=O)[C@@H](OC(C)=O)[C@H]1OC(C)=O

IC50 [22]: 0.77 µM | IC50 [23]: 0.53 µM
SMILES: CC1=NN(c2ccc(S(N)(=O)=O)cc2)C(=O)/C1=N/Nc1ccc(C(=O)O)cc1
Activity [21]: 72.72%

IC50 [12]: 0.39 µM
SMILES: Oc1cc(O)cc(/C=C/c2ccc(O)c(O)c2)c1 [PICEATANNOL]

IC50 [14]: 8.49 µM | IC50 [15]: 12.7 µM
SMILES: C=C1CCCC2C1(C)CCC(C)C2(C)CCC1=CC(=O)OC1O (stereo not drawn)

IC50 [24]: 6.8 µM | IC50 [25]: 6.4 µM
SMILES: NC(=O)c1ccc(-c2nc(CSc3nc4ccccc4s3)no2)cc1

SMILES: O=Cc1ccc(O)c(O)c1 [PROTOCATECHUALDEHYDE]
IC50 [1]: 19.7 µM

SMILES: COc1ccc(/C=c2\c(=O)[nH]n3c(=O)c4ccccc4nc23)cc1OC
IC50 [26]: 1 µM | IC50 [27]: 0.284 µM | IC50 [28]: 0.684 µM

SMILES: Nc1ccc(O)c(C(=O)NC2CCCCC2)c1
Activity [11]: 102%

Ratio IC50 [6]: 90 | IC50 [29]: 0.36 µM | IC50 [7]: 0.08 µM
SMILES: O=C(/N=C1\SC=C(c2ccc([N+](=O)[O-])cc2)C1c1ccccc1)c1cccc2ccccc12 (stereo not drawn)

IC50 [3]: 1850 µM | IC50 [4]: 2030 µM | IC50 [5]: 590 µg/mL (≈ 1560 µM)
SMILES: CCC[C@H](O)CCOC(=O)CC[C@]1(C)C=CC[C@@H](C)[C@@]12C=CC(C)(CC)O2 (stereo partly drawn)
